These results are taken from patent US20110046127A1, “Imidazopyridazines for Use as Protein Kinase Inhibitors” (priority 2007, published 2011).

For this assay, the system named is T1, PIM-1 or PIM-2.
T1 construct: fused on or other part: C-terminal histidine tag (PIM-1 enzyme); N-terminal histidine tag (PIM-2 enzyme)
The experiment in a line: PIM-1 / PIM-2 biochemical assay (ADP Hunter assay kit). To be noted: tested in either the PIM-1 or the PIM-2 biochemical assay (as appropriate); ATP 100 μM. More on the design: species or system human.
Source text: The biochemical assay to measure PIM-1 activity relies on the ADP Hunter assay kit (DiscoveRx Corp., Cat. # 90-0077), that determines the amount of ADP as direct product of the kinase enzyme activity.
The enzyme has been expressed and purified in-house as a recombinant human protein with a C-terminal histidine tag. The protein is active and stable.
(§1) Assay conditions were as indicated by the kit manufacturers with the following adaptations for the kinase activity step: • Kinase assay buffer and assay volume stay as recommended (15 mM HEPES, pH 7.4, 20 mM NaCl, 1 mM EGTA, 0.02% Tween 20, 10 mM MgCl2 and 0.1 mg/ml bovine γ-globulins/75 μl assay volume) • Incubation time and temperature: 60 min at 30° C. • PIM-1 concentration: 50 pg/μl • ATP concentration: 100 μM • PIM-1 substrate peptide: PIMtide (ARKRRRHPSGPPTA) • Peptide concentration: 60 μM • Positive control for kinase activity inhibition: 1-10 μM Staurosporine • DMSO concentration have to stay below 2% during the kinase reaction
Assays were performed in either 96 or 384-well plates. The final outcome of the coupled reactions provided by the kit is the release of the fluorescent product Resorufin and has been measured with a multilabel HTS counter VICTOR V (PerkinElmer) using an excitation filter at 544 nm and an emission filter at 580 nm.
The biochemical assay to measure PIM-2 activity relies on the ADP Hunter assay kit (DiscoveRx Corp., Cat. # 90-0077), that determines the amount of ADP as direct product of the kinase enzyme activity.
The enzyme has been expressed and purified in-house as a recombinant human protein with a N-terminal histidine tag. The protein is active and stable.
as §1, with “mg/ml bovine γ-globulins/20 μl assay” for “mg/ml bovine γ-globulins/75 μl assay”, “and temperature: 30 min at” for “and temperature: 60 min at”, “C. • PIM-2 concentration: 350” for “C. • PIM-1 concentration: 50”, “PIM-2 concentration: 350 pg/μl •” for “PIM-1 concentration: 50 pg/μl •”, “Peptide concentration: 100 μM •” for “Peptide concentration: 60 μM •”
By IC50 is commonly meant the point on the concentration scale where inhibition reaches its midpoint. The molecule `COc1ccc(NC(=O)c2cnc3ccc(NCc4ccc(F)cc4)nn23)cc1` [Example 11, 6-(4-Fluoro-benzylamino)-imidazo[1,2-b]pyridazine-3-carboxylic acid (4-methoxy-phenyl)-amide] displayed a 50% inhibitory concentration (IC50) of 80 nM.

For the molecule `COc1ccc(NC(=O)c2cnc3ccc(NCc4ccco4)nn23)cc1OC` [Example 15, 6-[(Furan-2-ylmethyl)-amino]-imidazo[1,2-b]pyridazine-3-carboxylic acid (3,4-dimethoxy-phenyl)-amide], the 50% inhibitory concentration (IC50) was 4030 nM.

Take `O=C(Nc1ccc2[nH]ccc2c1)c1cnc2ccc(NCc3ccc(Cl)c(Cl)c3)nn12` [Example 17, 6-(3,4-Dichloro-benzylamino)-imidazo[1,2-b]pyridazine-3-carboxylic acid (1H-indol-5-yl)-amide]: half-maximal inhibition (IC50) required 430 nM.

In turn, `O=C(Nc1ccccc1)c1cnc2ccc(NCc3ccc(Cl)c(Cl)c3)nn12` [Example 18, 6-(3,4-Dichloro-benzylamino)-imidazo[1,2-b]pyridazine-3-carboxylic acid phenyl-amide] had an IC50 of 60 nM.

`COCCNC(=O)c1cnc2ccc(NCc3ccc(Cl)c(Cl)c3)nn12` [Example 19, 6-(3,4-Dichloro-benzylamino)-imidazo[1,2-b]pyridazine-3-carboxylic acid (2-methoxy-ethyl)-amide] yielded an IC50 of 4660 nM.

`CC(=O)c1cccc(NC(=O)c2cnc3ccc(NCc4ccc(Cl)c(Cl)c4)nn23)c1` [Example 22, 6-(3,4-Dichloro-benzylamino)-imidazo[1,2-b]pyridazine-3-carboxylic acid (3-acetylphenyl)amide] came in with an IC50 of 33000 nM.

`O=C(Nc1cccnc1)c1cnc2ccc(NCc3ccc(Cl)c(Cl)c3)nn12` [Example 23, 6-(3,4-Dichloro-benzylamino)-imidazo[1,2-b]pyridazine-3-carboxylic acid pyridin-3-yl-amide] had an IC50 of 130 nM.

With `CCNC(=O)c1cnc2ccc(NCc3ccc(Cl)c(Cl)c3)nn12` [Example 25, 6-(3,4-Dichloro-benzylamino)-imidazo[1,2-b]pyridazine-3-carboxylic acid ethylamide], the midpoint of inhibition, the IC50, lay at 2200 nM.

Turning to `COc1ccc(NC(=O)c2cnc3ccc(NCc4ccc(S(N)(=O)=O)cc4)nn23)cn1` [Example 27], the IC50 amounted to 1140 nM.

Take `O=C(O)c1ccc(NC(=O)c2cnc3ccc(NCc4ccc(Cl)c(Cl)c4)nn23)cc1` [Example 29, 4-{[6-(3,4-Dichloro-benzylamino)-imidazo[1,2-b]pyridazine-3-carbonyl]-amino}-benzoic acid]: the concentration for half-maximal inhibition (IC50) was 260 nM.

Consider `COc1ccc(CNc2ccc3ncc(C(=O)Nc4ccc(C(=O)O)cc4)n3n2)cc1` [Example 30], for which the IC50 came to 380 nM.

Molecule `COc1ccc(CNc2ccc3ncc(C(=O)Nc4cccc(C(=O)O)c4)n3n2)cc1` [Example 31, 3-{[6-(4-Methoxy-benzylamino)-imidazo[1,2-b]pyridazine-3-carbonyl]-amino}-benzoic acid] showed an IC50 of 7380 nM.

The molecule `O=C(Nc1ccc(O)cc1)c1cnc2ccc(NCc3ccc(F)cc3)nn12` [Example 32, 6-(4-Fluoro-benzylamino)-imidazo[1,2-b]pyridazine-3-carboxylic acid (4-hydroxy-phenyl)-amide] had an IC50 of 70 nM.

Turning to `O=C(Nc1ccccc1)c1cnc2ccc(OCc3ccccc3)nn12` [Example 34, 6-Benzyloxy-imidazo[1,2-b]pyridazine-3-carboxylic acid phenylamide], the IC50 was 11000 nM.

Molecule `O=C(Nc1ccccc1)c1cnc2ccc(Oc3ccccc3)nn12` [Example 35, 6-Phenoxy-imidazo[1,2-b]pyridazine-3-carboxylic acid phenylamide] displayed a half-maximal inhibitory concentration (IC50) of 120 nM.

With `O=C(Nc1ccccc1)c1cnc2ccc(Oc3ccc(F)cc3)nn12` [Example 36], 2260 nM corresponded to half-maximal inhibition (IC50).

Molecule `O=C(Nc1ccccc1)c1cnc2ccc(-n3cccc3)nn12` [Example 37, 6-Pyrrol-1-yl-imidazo[1,2-b]pyridazine-3-carboxylic acid phenylamide] registered an IC50 of 530 nM.

For the molecule `O=C(Nc1ccccc1)c1cnc2ccc(-n3ccnc3)nn12` [Example 38, 6-Imidazol-1-yl-imidazo[1,2-b]pyridazine-3-carboxylic acid phenylamide], the IC50 is 4630 nM.

Molecule `O=C(Nc1ccccc1)c1cnc2ccc(Nc3ccccc3)nn12` [Example 39, 6-Phenylamino-imidazo[1,2-b]pyridazine-3-carboxylic acid phenylamide] gave an IC50 of 40 nM.

For `O=C(Nc1ccccc1)c1cnc2ccc(Nc3cccnc3)nn12` [Example 41, 6-(Pyridin-3-ylamino)-imidazo[1,2-b]pyridazine-3-carboxylic acid phenyl-amide], the midpoint of inhibition, the IC50, lay at 60 nM.

In turn, `CN(Cc1ccc(Cl)c(Cl)c1)c1ccc2ncc(C(=O)Nc3ccccc3)n2n1` [Example 42, 6-[(3,4-Dichloro-benzyl)-methyl-amino]-imidazo[1,2-b]pyridazine-3-carboxylic acid phenylamide] returned an IC50 of 60 nM.

In the case of `O=C(Nc1ccccc1)c1cnc2ccc(N3Cc4ccccc4C3)nn12` [Example 44, 6-(1,3-Dihydro-isoindol-2-yl)-imidazo[1,2-b]pyridazine-3-carboxylic acid phenylamide], 180 nM corresponded to half-maximal inhibition (IC50).

Molecule `O=C(Nc1ccccc1)c1cnc2ccc(-c3ccccc3)nn12` [Example 45, 6-Phenyl-imidazo[1,2-b]pyridazine-3-carboxylic acid phenylamide] yielded an IC50 of 490 nM.

On to `COc1ccc(-c2ccc3ncc(C(=O)Nc4ccccc4)n3n2)cc1` [Example 46, 6-(4-Methoxy-phenyl)-imidazo[1,2-b]pyridazine-3-carboxylic acid phenyl-amide], for which the 50% inhibitory concentration (IC50) worked out at 380 nM.

As to `O=C(Nc1ccccc1)c1cnc2ccc(-c3ccoc3)nn12` [Example 47, 6-Furan-3-yl-imidazo[1,2-b]pyridazine-3-carboxylic acid phenylamide], the IC50 is 470 nM.

The molecule `Clc1ccc(CNc2ccc3ncc(CN4CCOCC4)n3n2)cc1Cl` [Example 53, (3,4-Dichloro-benzyl)-(3-morpholin-4-ylmethyl-imidazo[1,2-b]pyridazin-6-yl)-amine] had an IC50 of 33000 nM.

Consider `Cc1cc(NCc2ccc(Cl)c(Cl)c2)nn2c(C(=O)Nc3ccccc3)cnc12` [Example 54, 6-(3,4-Dichloro-benzylamino)-8-methyl-imidazo[1,2-b]pyridazine-3-carboxylic acid phenylamide], for which the IC50 was found to be 70 nM.

In turn, `Cc1cc2ncc(C(=O)Nc3ccccc3)n2nc1NCc1ccc(Cl)c(Cl)c1` [Example 55, 6-(3,4-Dichloro-benzylamino)-7-methyl-imidazo[1,2-b]pyridazine-3-carboxylic acid phenylamide] came in with a half-inhibitory concentration (IC50) of 70 nM.

`Cc1cc2ncc(C(=O)Nc3ccccc3)n2nc1NCc1ccco1` [Example 58, 6-[(Furan-2-ylmethyl)-amino]-7-methyl-imidazo[1,2-b]pyridazine-3-carboxylic acid phenylamide] came in with an IC50 of 300 nM.

Molecule `Cc1ccc(CNc2nn3c(C(=O)Nc4ccccc4)cnc3cc2C)cc1F` [Example 60, 6-(3-Fluoro-4-methyl-benzylamino)-7-methyl-imidazo[1,2-b]pyridazine-3-carboxylic acid phenylamide] displayed an IC50 of 60 nM.

`Cc1cc2ncc(C(=O)Nc3ccccc3)n2nc1NCc1cccc(F)c1` [Example 61, 6-(3-Fluoro-benzylamino)-7-methyl-imidazo[1,2-b]pyridazine-3-carboxylic acid phenylamide] returned an IC50 of 60 nM.

In turn, `CCOC(=O)c1cccc(NC(=O)c2cnc3c(C)cc(NCc4ccc(OC)cc4)nn23)c1` [Example 64, 3-{[6-(4-Methoxy-benzylamino)-8-methyl-imidazo[1,2-b]pyridazine-3-carbonyl]-amino}-benzoic acid ethyl ester] registered an IC50 of 160 nM.

Turning to `COc1ccc(CNc2cc(C)c3ncc(C(=O)Nc4cccc(C(=O)O)c4)n3n2)cc1` [Example 65, 3-{[6-(4-Methoxy-benzylamino)-8-methyl-imidazo[1,2-b]pyridazine-3-carbonyl]-amino}-benzoic acid], the concentration for half-maximal inhibition (IC50) stood at 19300 nM.

Molecule `CNC(=O)c1cccc(NC(=O)c2cnc3c(C)cc(NCc4ccc(OC)cc4)nn23)c1` [Example 66, 6-(4-Methoxy-benzylamino)-8-methyl-imidazo[1,2-b]pyridazine-3-carboxylic acid (3-methylcarbamoyl-phenyl)-amide] returned a half-inhibitory concentration (IC50) of 3130 nM.
